Measurements published in the supplement of paper PMC11208160.

assay: recombinant UMI read abundance after kanamycin selection (control-corrected) (log10(CPM+1)); higher = more efficient recombination; extreme values may be limits of the assay; sequences stand for … in AGTGCAGAGAAAATCGGCCAGTTTTCTCTGCCTGCAGTCCGCATGCCGTGGGACCCCTTGGGTTCTAACCTGTTGCCTAGATTTATGCAGCGGACTGCCTTTCTCCCAAAGTGATAAACCGG…AGGTTGGTTTCACT; site = the 11-nt donor
Procedure, shortened: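 Each donor and donor-binding-loop pair was tracked by a 12-nt UMI on a plasmid carrying a promoterless kanamycin gene. With a second plasmid supplying a fixed target and T7-inducible IS621 bridge recombinase, the pool was plated in Escherichia coli on IPTG (0.07 mM) plus kanamycin or unselected. Sequencing of recombinant UMIs across the donor–target junction gave counts expressed as log10(CPM+1) after replicate averaging and control-derived scaling.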
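Further: IS621 bridge recombinase in Escherichia coli cells against a fixed T5 target plasmid.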

Sequence	recombinant UMI read abundance (log10)
CGTACGTCATGGACCGGTTTTCCCGGTAATCCGTATTTGTT (site TGTACGTCTAA)	0.00974
CGTACTCCATGGACCGGTTTTCCCGGTAATCCGTATTTGCA (site CGTACTCCTTG)	0.892
CGTAGAACATGGACCGGTTTTCCCGGTAATCCGTATTTGTT (site CGTAGAACTAA)	0.685
CGTAGAACATGGACCGGTTTTCCCGGTAATCCGTATTTGTT (site CGTCGAACTAA)	0.018
CGTAGAACATGGACCGGTTTTCCCGGTAATCCGTATTTGTT (site CGTGGAACTAA)	0.00623
CGTAGAACATGGACCGGTTTTCCCGGTAATCCGTATTTGTT (site CGTTGAACTAA)	0.0104
CGTAGTGCATGGACCGGTTTTCCCGGTAATCCGTATTTGTT (site CGTAGTGCTAA)	0.84
CGTCCAGCATGGACCGGTTTTCCCGGTAATCCGTATTTGCT (site CGTCCAGCTAG)	0.438
CGTCGAACATGGACCGGTTTTCCCGGTAATCCGTATTTGAA (site CGTCGAACTTT)	0.822
CGTCGAACATGGACCGGTTTTCCCGGTAATCCGTATTTGTT (site CGTAGAACTAA)	0
CGTCGAACATGGACCGGTTTTCCCGGTAATCCGTATTTGTT (site CGTCGAACTAA)	0
CGTCGAACATGGACCGGTTTTCCCGGTAATCCGTATTTGTT (site CGTGGAACTAA)	0
CGTCGAACATGGACCGGTTTTCCCGGTAATCCGTATTTGTT (site CGTTGAACTAA)	0.00437
CGTCTATCATGGACCGGTTTTCCCGGTAATCCGTATTTGAT (site CGTCTATCTAT)	0
CGTCTCTCATGGACCGGTTTTCCCGGTAATCCGTATTTGGG (site CGTCTCTCTCC)	0.0222
CGTCTCTCATGGACCGGTTTTCCCGGTAATCCGTATTTGTA (site CATCTCTCTTA)	1.13
CGTCTCTCATGGACCGGTTTTCCCGGTAATCCGTATTTGTA (site CCTCTCTCTTA)	1.04
CGTCTCTCATGGACCGGTTTTCCCGGTAATCCGTATTTGTA (site CGTCTCTCTTA)	2.64
CGTCTCTCATGGACCGGTTTTCCCGGTAATCCGTATTTGTA (site CTTCTCTCTTA)	1.33
CGTCTGTCATGGACCGGTTTTCCCGGTAATCCGTATTTGAC (site CGTCTGTCTGT)	0
CGTGCAACATGGACCGGTTTTCCCGGTAATCCGTATTTGTT (site CGTGAAACTAA)	0
CGTGCAACATGGACCGGTTTTCCCGGTAATCCGTATTTGTT (site CGTGCAACTAA)	0.0114
CGTGCAACATGGACCGGTTTTCCCGGTAATCCGTATTTGTT (site CGTGGAACTAA)	0.018

Sequence	recombinant UMI read abundance (log10)
CGTGCAACATGGACCGGTTTTCCCGGTAATCCGTATTTGTT (site CGTGTAACTAA)	0.00375
CGTGGAACATGGACCGGTTTTCCCGGTAATCCGTATTTGAT (site CGTGGAACTAA)	0.00774
CGTGGAACATGGACCGGTTTTCCCGGTAATCCGTATTTGAT (site CGTGGAACTAC)	0
CGTGGAACATGGACCGGTTTTCCCGGTAATCCGTATTTGAT (site CGTGGAACTAG)	0
CGTGGAACATGGACCGGTTTTCCCGGTAATCCGTATTTGAT (site CGTGGAACTAT)	2.14
CGTGGAACATGGACCGGTTTTCCCGGTAATCCGTATTTGTG (site CGTGGAACTAA)	0.0173
CGTGGAACATGGACCGGTTTTCCCGGTAATCCGTATTTGTG (site CGTGGAACTCA)	1.16
CGTGGAACATGGACCGGTTTTCCCGGTAATCCGTATTTGTG (site CGTGGAACTGA)	0
CGTGGAACATGGACCGGTTTTCCCGGTAATCCGTATTTGTG (site CGTGGAACTTA)	1.61
CGTGGAACATGGACCGGTTTTCCCGGTAATCCGTATTTGTT (site AGTGGAACTAA)	0.101
CGTGGAACATGGACCGGTTTTCCCGGTAATCCGTATTTGTT (site CATGGAACTAA)	0.0194
CGTGGAACATGGACCGGTTTTCCCGGTAATCCGTATTTGTT (site CCTGGAACTAA)	0.0032
CGTGGAACATGGACCGGTTTTCCCGGTAATCCGTATTTGTT (site CGAGGAACTAA)	1.63
CGTGGAACATGGACCGGTTTTCCCGGTAATCCGTATTTGTT (site CGCGGAACTAA)	0.501
CGTGGAACATGGACCGGTTTTCCCGGTAATCCGTATTTGTT (site CGGGGAACTAA)	0.00685
CGTGGAACATGGACCGGTTTTCCCGGTAATCCGTATTTGTT (site CGTAGAACTAA)	1.15
CGTGGAACATGGACCGGTTTTCCCGGTAATCCGTATTTGTT (site CGTCGAACTAA)	0.0185
CGTGGAACATGGACCGGTTTTCCCGGTAATCCGTATTTGTT (site CGTGAAACTAA)	0
CGTGGAACATGGACCGGTTTTCCCGGTAATCCGTATTTGTT (site CGTGCAACTAA)	0.00967
CGTGGAACATGGACCGGTTTTCCCGGTAATCCGTATTTGTT (site CGTGGAACTAA)	1.72
CGTGGAACATGGACCGGTTTTCCCGGTAATCCGTATTTGTT (site CGTGGAACTAC)	0.303
CGTGGAACATGGACCGGTTTTCCCGGTAATCCGTATTTGTT (site CGTGGAACTAG)	0.951
CGTGGAACATGGACCGGTTTTCCCGGTAATCCGTATTTGTT (site CGTGGAACTAT)	0.403

Sequence	recombinant UMI read abundance (log10)
CGTGGAACATGGACCGGTTTTCCCGGTAATCCGTATTTGTT (site CGTGGAACTCA)	0.251
CGTGGAACATGGACCGGTTTTCCCGGTAATCCGTATTTGTT (site CGTGGAACTGA)	0.938
CGTGGAACATGGACCGGTTTTCCCGGTAATCCGTATTTGTT (site CGTGGAACTTA)	0.841
CGTGGAACATGGACCGGTTTTCCCGGTAATCCGTATTTGTT (site CGTGGACCTAA)	0.071
CGTGGAACATGGACCGGTTTTCCCGGTAATCCGTATTTGTT (site CGTGGAGCTAA)	0.00766
CGTGGAACATGGACCGGTTTTCCCGGTAATCCGTATTTGTT (site CGTGGATCTAA)	0.524
CGTGGAACATGGACCGGTTTTCCCGGTAATCCGTATTTGTT (site CGTGGCACTAA)	0.0304
CGTGGAACATGGACCGGTTTTCCCGGTAATCCGTATTTGTT (site CGTGGGACTAA)	0.0232
CGTGGAACATGGACCGGTTTTCCCGGTAATCCGTATTTGTT (site CGTGGTACTAA)	0
CGTGGAACATGGACCGGTTTTCCCGGTAATCCGTATTTGTT (site CGTGTAACTAA)	0
CGTGGAACATGGACCGGTTTTCCCGGTAATCCGTATTTGTT (site CGTTGAACTAA)	0
CGTGGAACATGGACCGGTTTTCCCGGTAATCCGTATTTGTT (site CTTGGAACTAA)	0.0161
CGTGGAACATGGACCGGTTTTCCCGGTAATCCGTATTTGTT (site GGTGGAACTAA)	0.0165
CGTGGAACATGGACCGGTTTTCCCGGTAATCCGTATTTGTT (site TGTGGAACTAA)	0.0144
CGTGGACCATGGACCGGTTTTCCCGGTAATCCGTATTTGGG (site CGAGGACCTCC)	0.0168
CGTGGACCATGGACCGGTTTTCCCGGTAATCCGTATTTGGG (site CGCGGACCTCC)	0.00423
CGTGGACCATGGACCGGTTTTCCCGGTAATCCGTATTTGGG (site CGGGGACCTCC)	0.028
CGTGGACCATGGACCGGTTTTCCCGGTAATCCGTATTTGGG (site CGTGGACCTCC)	0.0154
CGTGGGACATGGACCGGTTTTCCCGGTAATCCGTATTTGTT (site CGTGGAACTAA)	1.86
CGTGGGACATGGACCGGTTTTCCCGGTAATCCGTATTTGTT (site CGTGGCACTAA)	0.0102
CGTGGGACATGGACCGGTTTTCCCGGTAATCCGTATTTGTT (site CGTGGGACTAA)	1.79
CGTGGGACATGGACCGGTTTTCCCGGTAATCCGTATTTGTT (site CGTGGTACTAA)	0
